Test results published in patent US8669249B2, “Poly (ADP-ribose) polymerase (PARP) inhibitors” (Takeda Pharmaceutical Company Limited, priority 2009, dated 2014).

Legend:
[1] = target: T1, catalytic domain of Human PARP (Homo sapiens, UniProt P09874); assay: Biacore surface plasmon resonance affinity assay; type: binding; settings: pKD=-log10 KD, KD in mol/L; Biacore T100, 25° C.; read-out: pKD (converted)
T1 construct: The catalytic domain of Human PARP was cloned and prepared; made in house
Summary of the method: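 Binding at 25° C on Biacore T100: 1 min compound association then 5 min dissociation (50 μL/min) over immobilized PARP catalytic domain, buffer HBS-P plus 1% DMSO, 0.5 mM TCEP, 5 mM MgCl2, 2-fold dilution series. KD derived as koff/kon from fitted association and dissociation phases.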

PARP = target: T2, PARP (Homo sapiens, UniProt P09874); assay: PARP ELISA (ELISA-based colorimetric PARP/Apoptosis Assay kit, Trevigen); type: biochemical; settings: pIC50=-log10 IC50, IC50 in mol/L; inhibition of PARP catalytic activity
T2 construct: purchased Trevigen 4684-096-K HT (kit); 4684-096-01 (PARP enzyme)
T2 sequence (P09874 whole entry): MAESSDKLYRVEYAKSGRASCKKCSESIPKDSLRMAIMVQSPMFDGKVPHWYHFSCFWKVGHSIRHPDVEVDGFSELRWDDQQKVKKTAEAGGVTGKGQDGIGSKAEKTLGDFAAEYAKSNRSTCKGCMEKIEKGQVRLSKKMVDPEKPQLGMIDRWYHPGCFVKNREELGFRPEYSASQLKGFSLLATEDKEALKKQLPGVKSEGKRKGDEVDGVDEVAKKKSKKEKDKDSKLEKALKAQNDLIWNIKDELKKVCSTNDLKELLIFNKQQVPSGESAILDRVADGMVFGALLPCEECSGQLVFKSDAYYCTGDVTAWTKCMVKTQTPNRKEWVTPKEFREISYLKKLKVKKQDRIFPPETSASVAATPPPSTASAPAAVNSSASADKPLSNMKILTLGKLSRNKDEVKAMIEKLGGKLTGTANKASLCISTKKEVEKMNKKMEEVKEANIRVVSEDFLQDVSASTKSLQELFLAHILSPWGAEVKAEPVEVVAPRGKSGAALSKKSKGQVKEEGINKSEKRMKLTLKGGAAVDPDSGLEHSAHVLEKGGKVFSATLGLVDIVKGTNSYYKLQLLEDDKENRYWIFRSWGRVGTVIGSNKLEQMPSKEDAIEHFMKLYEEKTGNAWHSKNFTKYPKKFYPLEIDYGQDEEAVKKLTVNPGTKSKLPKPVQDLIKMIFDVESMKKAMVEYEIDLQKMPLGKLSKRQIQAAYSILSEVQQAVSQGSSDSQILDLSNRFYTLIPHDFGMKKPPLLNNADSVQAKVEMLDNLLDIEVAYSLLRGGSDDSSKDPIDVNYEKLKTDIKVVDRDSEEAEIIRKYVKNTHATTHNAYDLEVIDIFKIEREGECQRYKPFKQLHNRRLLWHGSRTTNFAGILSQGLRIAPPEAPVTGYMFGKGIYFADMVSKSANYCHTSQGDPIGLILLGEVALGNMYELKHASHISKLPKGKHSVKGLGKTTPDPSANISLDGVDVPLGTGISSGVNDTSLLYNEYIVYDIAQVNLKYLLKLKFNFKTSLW
Summary of the method: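 Quenched after 10 min catalysis by aspiration and four PBS/0.1% Triton X-100 washes. Poly(ADP-ribose) detected with mouse anti-PAR monoclonal antibody, goat anti-mouse IgG-HRP and HRP substrate; colorimetric signal proportional to PARP catalytic activity.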

Jurkat cell line = assay: PARP cellular chemopotentiation assay (MTS, with/without TMZ); type: cell-based; settings: Chemopotentiation factor: ratio of EC50 values of Jurkat cells co-treated without and with 100 μM TMZ; 96 hours
Summary of the method: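 Jurkat cells, 10,000/well, pre-cultured 24 h, then treated 96 h with serial compound dilutions (0.5% DMSO) with or without 100 μM TMZ. Viability by MTS conversion (OD490), normalized to DMSO controls; EC50 from curve fits, PF50 = EC50 without TMZ / EC50 with TMZ.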

T1 sequence (P09874 788-1014 limits assumed): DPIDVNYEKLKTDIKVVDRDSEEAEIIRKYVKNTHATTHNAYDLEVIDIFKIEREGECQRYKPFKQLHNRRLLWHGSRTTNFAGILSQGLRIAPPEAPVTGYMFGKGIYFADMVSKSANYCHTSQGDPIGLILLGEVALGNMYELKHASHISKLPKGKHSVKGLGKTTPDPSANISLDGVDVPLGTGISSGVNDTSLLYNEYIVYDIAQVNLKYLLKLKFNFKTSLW

Row | Kd [1] [nM] | IC50 (PARP) [nM] | SMILES | PF50 (Jurkat cell line)
1 | ≤ 10 | 39.8 to 100 | CC1Oc2ccc(CN3CCN(c4ccc(Cl)cn4)CC3)cc2NC1=O (stereo not drawn) [Compound 61, 6-((4-(5-Chloropyridin-2-yl)piperazin-1-yl)methyl)-2-methyl-2H-benzo[b][1,4]oxazin-3(4H)-one] | ≦0.9
2 | < 31.6 | ≤ 31.6 | CCNC(=O)c1ccc(N2CCN(Cc3cc4c(c(OC)c3)OC(C)C(=O)N4)CC2)cc1 (stereo not drawn) [Compound 162, N-Ethyl-4-(4-((8-methoxy-2-methyl-3-oxo-3,4-dihydro-2H-benzo[b][1,4]oxazin-6-yl)methyl)piperazin-1-yl)benzamide] | 2.0-9.9
3 | < 31.6 | ≤ 31.6 | COc1cc(CN2CCN(c3ccc(C(=O)NC(C)C)cc3)CC2)cc2c1OC(C)C(=O)N2 (stereo not drawn) [Compound 164, N-Isopropyl-4-(4-((8-methoxy-2-methyl-3-oxo-3,4-dihydro-2H-benzo[b][1,4]oxazin-6-yl)methyl)piperazin-1-yl)benzamide] | ≧10.0
4 | ≤ 10 | 39.8 to 100 | COC(=O)c1ccc(C2CCN(Cc3ccc4c(c3)NC(=O)C(C)O4)CC2)cc1 (stereo not drawn) [Compound 214, Methyl 4-(1-((2-methyl-3-oxo-3,4-dihydro-2H-benzo[b][1,4]oxazin-6-yl)methyl)piperidin-4-yl)benzoate] | ≦0.9
5 | ≤ 10 | ≥ 126 | CCOC(=O)c1ccc(N2CCN(Cc3ccc4c(c3)NC(=O)C(C)O4)CC2)cc1 (stereo not drawn) [Compound 217, Ethyl 4-(4-((2-methyl-3-oxo-3,4-dihydro-2H-benzo[b][1,4]oxazin-6-yl)methyl)piperazin-1-yl)benzoate] | ≦0.9
6 | ≤ 10 | 39.8 to 100 | COC(=O)c1ccc(N2CCN(Cc3ccc4c(c3)NC(=O)C(C)O4)CC2)cc1 (stereo not drawn) [Compound 220, Methyl 4-(4-((2-methyl-3-oxo-3,4-dihydro-2H-benzo[b][1,4]oxazin-6-yl)methyl)piperazin-1-yl)benzoate] | 1.0-1.9
7 | ≤ 10 | ≤ 31.6 | CNC(=O)c1ccc(N2CCN(Cc3ccc4c(c3)NC(=O)C(C)O4)CC2)cc1 (stereo not drawn) [Compound 223, N-Methyl-4-(4-((2-methyl-3-oxo-3,4-dihydro-2H-benzo[b][1,4]oxazin-6-yl)methyl)piperazin-1-yl)benzamide] | ≦0.9
8 | ≤ 10 | ≤ 31.6 | CC(C)NC(=O)c1ccc(N2CCN(Cc3ccc4c(c3)NC(=O)C(C)O4)CC2)cc1 (stereo not drawn) [Compound 225, N-Isopropyl-4-(4-((2-methyl-3-oxo-3,4-dihydro-2H-benzo[b][1,4]oxazin-6-yl)methyl)piperazin-1-yl)benzamide] | ≦0.9
9 | ≤ 10 | ≤ 31.6 | CC1Oc2ccc(CN3CCN(c4ccc(C#N)cn4)CC3)cc2NC1=O (stereo not drawn) [Compound 231, 6-(4-((2-Methyl-3-oxo-3,4-dihydro-2H-benzo[b][1,4]oxazin-6-yl)methyl)piperazin-1-yl)nicotinonitrile] | 1.0-1.9
10 | ≤ 10 | 39.8 to 100 | CC1Oc2ccc(CN3CCN(c4ccc(C(=O)NCC5CC5)cn4)CC3)cc2NC1=O (stereo not drawn) [Compound 234, N-(Cyclopropylmethyl)-6-(4-((2-methyl-3-oxo-3,4-dihydro-2H-benzo[b][1,4]oxazin-6-yl)methyl)piperazin-1-yl)nicotinamide] | 1.0-1.9
11 | ≤ 10 | ≥ 126 | CCOC(=O)c1ccc(N2CCN(Cc3ccc4c(c3)NC(=O)C(C)O4)CC2)nc1 (stereo not drawn) [Compound 237, Ethyl 6-(4-((2-methyl-3-oxo-3,4-dihydro-2H-benzo[b][1,4]oxazin-6-yl)methyl)piperazin-1-yl)nicotinate] | ≦0.9
12 | 1260 to 10000 | ≥ 126 | CC1Oc2ccc(CN3Cc4ccc(NC(=O)C5CC5)cc4C3)cc2NC1=O (stereo not drawn) [Compound 243, N-(2-((2-Methyl-3-oxo-3,4-dihydro-2H-benzo[b][1,4]oxazin-6-yl)methyl)isoindolin-5-yl)cyclopropanecarboxamide] | ≦0.9
13 | ≤ 10 | ≤ 31.6 | Cc1cc(CN2CCN(c3ccc(C#N)cc3)CC2)cc2c1OC(C)C(=O)N2 (stereo not drawn) [Compound 253, 4-(4-((2,8-Dimethyl-3-oxo-3,4-dihydro-2H-benzo[b][1,4]oxazin-6-yl)methyl)piperazin-1-yl)benzonitrile] | 2.0-9.9
14 | 12.6 to 100 | ≤ 31.6 | Cc1cc(CN2CCN(c3ccc(C#N)cn3)CC2)cc2c1OC(C)C(=O)N2 (stereo not drawn) [Compound 254, 6-(4-((2,8-Dimethyl-3-oxo-3,4-dihydro-2H-benzo[b][1,4]oxazin-6-yl)methyl)piperazin-1-yl)nicotinonitrile] | 2.0-9.9
15 | 12.6 to 100 | 39.8 to 100 | CCOC(=O)c1ccc(N2CCN(Cc3cc(C)c4c(c3)NC(=O)C(C)O4)CC2)cc1 (stereo not drawn) [Compound 255, Ethyl 4-(4-((2,8-dimethyl-3-oxo-3,4-dihydro-2H-benzo[b][1,4]oxazin-6-yl)methyl)piperazin-1-yl)benzoate] | ≦0.9

The remaining lines, values behind:

Row | SMILES | Kd [1] [nM] | IC50 (PARP) [nM] | PF50 (Jurkat cell line)
16 | COc1cc(CN2CCN(c3ccccc3)CC2)cc2c1OC(C)C(=O)N2 (stereo not drawn) [Compound 156, 8-Methoxy-2-methyl-6-((4-phenylpiperazin-1-yl)methyl)-2H-benzo[b][1,4]oxazin-3(4H)-one] | ≤ 10 | ≥ 126 | 1.0-1.9
17 | CNC(=O)c1ccc(N2CCN(Cc3cc4c(c(OC)c3)OC(C)C(=O)N4)CC2)cc1 (stereo not drawn) [Compound 161, 4-(4-((8-Methoxy-2-methyl-3-oxo-3,4-dihydro-2H-benzo[b][1,4]oxazin-6-yl)methyl)piperazin-1-yl)-N-methylbenzamide] | < 31.6 | ≤ 31.6 | ≧10.0
18 | COc1cc(CN2CCN(c3ccc(C(=O)NC4CC4)cc3)CC2)cc2c1OC(C)C(=O)N2 (stereo not drawn) [Compound 163, N-Cyclopropyl-4-(4-((8-methoxy-2-methyl-3-oxo-3,4-dihydro-2H-benzo[b][1,4]oxazin-6-yl)methyl)piperazin-1-yl)benzamide] | < 31.6 | ≤ 31.6 | ≧10.0
19 | CCC1Oc2ccc(CN3CCN(c4ccccc4O)CC3)cc2NC1=O (stereo not drawn) [Compound 197, 2-Ethyl-6-((4-(2-hydroxyphenyl)piperazin-1-yl)methyl)-2H-benzo[b][1,4]oxazin-3(4H)-one] | ≤ 10 | ≥ 126 | 1.0-1.9
20 | CC1Oc2ccc(CN3CCN(c4ccc(C#N)cc4)CC3)cc2NC1=O (stereo not drawn) [Compound 219, 4-(4-((2-methyl-3-oxo-3,4-dihydro-2H-benzo[b][1,4]oxazin-6-yl)methyl)piperazin-1-yl)benzonitrile] | ≤ 10 | ≤ 31.6 | ≦0.9
21 | CC1Oc2ccc(CN3CCN(c4ccc(C(F)(F)F)cc4)CC3)cc2NC1=O (stereo not drawn) [Compound 222, 2-Methyl-6-((4-(4-(trifluoromethyl)phenyl)piperazin-1-yl)methyl)-2H-benzo[b][1,4]oxazin-3(4H)-one] | 12.6 to 100 | ≥ 126 | 1.0-1.9
22 | CCNC(=O)c1ccc(N2CCN(Cc3ccc4c(c3)NC(=O)C(C)O4)CC2)cc1 (stereo not drawn) [Compound 224, N-Ethyl-4-(4-((2-methyl-3-oxo-3,4-dihydro-2H-benzo[b][1,4]oxazin-6-yl)methyl)piperazin-1-yl)benzamide] | ≤ 10 | ≤ 31.6 | 2.0-9.9
23 | COC(=O)c1ccc(N2CCN(Cc3ccc4c(c3)NC(=O)C(C)O4)CC2)nc1 (stereo not drawn) [Compound 232, Methyl 6-(4-((2-methyl-3-oxo-3,4-dihydro-2H-benzo[b][1,4]oxazin-6-yl)methyl)piperazin-1-yl)nicotinate] | ≤ 10 | 39.8 to 100 | 1.0-1.9
24 | CNC(=O)c1ccc(N2CCN(Cc3ccc4c(c3)NC(=O)C(C)O4)CC2)nc1 (stereo not drawn) [Compound 235, N-Methyl-6-(4-((2-methyl-3-oxo-3,4-dihydro-2H-benzo[b][1,4]oxazin-6-yl)methyl)piperazin-1-yl)nicotinamide] | ≤ 10 | ≤ 31.6 | 2.0-9.9
25 | CCNC(=O)c1ccc(N2CCN(Cc3ccc4c(c3)NC(=O)C(C)O4)CC2)nc1 (stereo not drawn) [Compound 236, N-Ethyl-6-(4-((2-methyl-3-oxo-3,4-dihydro-2H-benzo[b][1,4]oxazin-6-yl)methyl)piperazin-1-yl)nicotinamide] | ≤ 10 | ≤ 31.6 | ≦0.9
26 | CC(C)NC(=O)c1ccc(N2CCN(Cc3ccc4c(c3)NC(=O)C(C)O4)CC2)nc1 (stereo not drawn) [Compound 238, N-Isopropyl-6-(4-((2-methyl-3-oxo-3,4-dihydro-2H-benzo[b][1,4]oxazin-6-yl)methyl)piperazin-1-yl)nicotinamide] | 12.6 to 100 | 39.8 to 100 | 1.0-1.9
27 | CNC(=O)c1ccc(N2CCN(Cc3cc(C)c4c(c3)NC(=O)C(C)O4)CC2)cc1 (stereo not drawn) [Compound 257, 4-(4-((2,8-Dimethyl-3-oxo-3,4-dihydro-2H-benzo[b][1,4]oxazin-6-yl)methyl)piperazin-1-yl)-N-methylbenzamide] | ≤ 10 | ≤ 31.6 | 2.0-9.9
